Assay results as given in the SangsterLogP compilation.

Assay: method code SF-AS, from DOI: 10.1006/pest.1994.1057

Structure (SMILES)	logP
O=[N+]([O-])C=C1NCCN1c1ccc(Cl)nc1	-0.23
O=[N+]([O-])/C=C1\NCCN1Cc1ccc(Cl)nc1	-0.19
O=[N+]([O-])C=C1NCCN1Cc1ccncc1	-1.05
O=[N+]([O-])/C=C1\NCCN1Cc1ccccc1	0.33
O=[N+]([O-])C=C1NCCCN1Cc1ccc(Cl)nc1	-0.62
O=[N+]([O-])N=C1NCCN1Cc1cccnc1	-0.19
Cc1ccc(CN2CCNC2=C[N+](=O)[O-])cn1	-0.59
O=[N+]([O-])C=C1NCCN1Cc1ccccn1	-0.87
O=[N+]([O-])C=C1NCCN1Cc1ccc(Cl)cc1	0.99
O=[N+]([O-])C=C1SCCN1Cc1ccc(Cl)nc1	0.65
O=[N+]([O-])C=C1NCCN1CCc1ccc(Cl)nc1	-0.23
CN1CCN(Cc2ccc(Cl)nc2)C1=N[N+](=O)[O-]	0.26
O=[N+]([O-])/C=C1/NCCN1Cc1cccnc1	-1.02
N#CN=C1NCCN1Cc1ccc(Cl)nc1	0.77
